What was measured:
RET(V804M) = target: T1, RET(V804M) (Homo sapiens, UniProt P07949, V804M); assay: KinomeScan; format: binding; conditions: read-out: % control
T1 construct: purchased DiscoveRx KINOMEscan

[1] = target: T2, RSK1(Kin.Dom.1-N-terminal) (Homo sapiens, UniProt Q15418); assay: KinomeScan; format: binding; conditions: read-out: % control
T2 construct: RSK1(Kin.Dom.1-N-terminal); purchased DiscoveRx KINOMEscan

WNK2 = target: T3, WNK2 (Homo sapiens, UniProt Q9Y3S1); assay: KinomeScan; format: binding; conditions: read-out: % control
T3 construct: purchased DiscoveRx KINOMEscan

LYN = target: T4, LYN (Homo sapiens, UniProt P07948); assay: KinomeScan; format: binding; conditions: read-out: % control
T4 construct: purchased DiscoveRx KINOMEscan

CDC2L1 = target: T5, CDC2L1 (Homo sapiens, UniProt P21127); assay: KinomeScan; format: binding; conditions: read-out: % control
T5 construct: purchased DiscoveRx KINOMEscan
T5 sequence (P21127 whole entry): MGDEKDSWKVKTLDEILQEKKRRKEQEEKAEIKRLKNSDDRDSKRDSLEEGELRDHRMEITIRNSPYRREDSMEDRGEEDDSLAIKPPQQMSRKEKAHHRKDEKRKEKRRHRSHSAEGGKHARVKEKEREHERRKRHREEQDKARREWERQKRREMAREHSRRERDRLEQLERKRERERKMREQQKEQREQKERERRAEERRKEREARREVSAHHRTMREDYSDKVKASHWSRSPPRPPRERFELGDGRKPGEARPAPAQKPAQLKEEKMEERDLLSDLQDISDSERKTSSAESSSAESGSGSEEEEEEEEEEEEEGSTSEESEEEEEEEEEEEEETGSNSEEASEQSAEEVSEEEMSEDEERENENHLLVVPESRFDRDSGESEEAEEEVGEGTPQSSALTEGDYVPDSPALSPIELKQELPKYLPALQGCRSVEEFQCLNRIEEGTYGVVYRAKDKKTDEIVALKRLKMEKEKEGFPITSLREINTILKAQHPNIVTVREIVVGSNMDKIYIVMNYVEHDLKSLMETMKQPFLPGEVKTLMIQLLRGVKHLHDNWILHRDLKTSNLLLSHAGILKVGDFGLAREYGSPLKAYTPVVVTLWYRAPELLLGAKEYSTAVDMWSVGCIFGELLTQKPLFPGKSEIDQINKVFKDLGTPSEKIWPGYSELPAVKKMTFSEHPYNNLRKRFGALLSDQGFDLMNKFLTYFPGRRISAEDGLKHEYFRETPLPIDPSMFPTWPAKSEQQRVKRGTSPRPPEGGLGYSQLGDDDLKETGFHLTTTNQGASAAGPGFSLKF

TAOK3 = target: T6, TAOK3 (Homo sapiens, UniProt Q9H2K8); assay: KinomeScan; format: binding; conditions: read-out: % control
T6 construct: purchased DiscoveRx KINOMEscan
T6 sequence (Q9H2K8 whole entry): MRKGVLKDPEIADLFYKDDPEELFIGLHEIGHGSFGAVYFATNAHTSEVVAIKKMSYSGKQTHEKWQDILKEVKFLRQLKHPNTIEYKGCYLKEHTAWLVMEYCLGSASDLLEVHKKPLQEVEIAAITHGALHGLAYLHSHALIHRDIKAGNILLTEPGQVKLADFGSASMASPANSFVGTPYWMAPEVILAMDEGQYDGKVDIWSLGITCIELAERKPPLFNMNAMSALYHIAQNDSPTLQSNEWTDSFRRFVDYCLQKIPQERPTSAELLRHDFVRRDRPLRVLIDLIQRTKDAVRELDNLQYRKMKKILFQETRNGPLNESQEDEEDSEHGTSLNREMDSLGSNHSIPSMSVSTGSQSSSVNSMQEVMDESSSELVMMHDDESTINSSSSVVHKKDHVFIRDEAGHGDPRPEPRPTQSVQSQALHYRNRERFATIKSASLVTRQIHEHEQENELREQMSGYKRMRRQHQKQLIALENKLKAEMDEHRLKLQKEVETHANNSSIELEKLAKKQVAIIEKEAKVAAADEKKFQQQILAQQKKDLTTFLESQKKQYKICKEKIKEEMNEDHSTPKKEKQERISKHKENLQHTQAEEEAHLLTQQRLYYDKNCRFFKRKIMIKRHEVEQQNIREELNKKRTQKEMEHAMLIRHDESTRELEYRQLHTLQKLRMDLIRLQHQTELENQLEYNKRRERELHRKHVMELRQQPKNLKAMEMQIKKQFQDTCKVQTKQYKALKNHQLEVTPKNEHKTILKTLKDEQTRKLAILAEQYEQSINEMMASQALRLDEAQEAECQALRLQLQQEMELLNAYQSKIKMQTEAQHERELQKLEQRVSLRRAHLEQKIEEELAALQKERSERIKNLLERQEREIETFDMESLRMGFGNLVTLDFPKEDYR

BTK = target: T7, BTK (Homo sapiens, UniProt Q06187); assay: KinomeScan; format: binding; conditions: read-out: % control
T7 construct: purchased Invitrogen (SelectScreen service)

NEK10 = target: T8, NEK10 (Homo sapiens, UniProt Q6ZWH5); assay: KinomeScan; format: binding; conditions: read-out: % control
T8 construct: purchased DiscoveRx KINOMEscan

PCTK3 = target: T9, PCTK3 (Homo sapiens, UniProt Q07002); assay: KinomeScan; format: binding; conditions: read-out: % control
T9 construct: purchased DiscoveRx KINOMEscan
T9 sequence (Q07002 whole entry): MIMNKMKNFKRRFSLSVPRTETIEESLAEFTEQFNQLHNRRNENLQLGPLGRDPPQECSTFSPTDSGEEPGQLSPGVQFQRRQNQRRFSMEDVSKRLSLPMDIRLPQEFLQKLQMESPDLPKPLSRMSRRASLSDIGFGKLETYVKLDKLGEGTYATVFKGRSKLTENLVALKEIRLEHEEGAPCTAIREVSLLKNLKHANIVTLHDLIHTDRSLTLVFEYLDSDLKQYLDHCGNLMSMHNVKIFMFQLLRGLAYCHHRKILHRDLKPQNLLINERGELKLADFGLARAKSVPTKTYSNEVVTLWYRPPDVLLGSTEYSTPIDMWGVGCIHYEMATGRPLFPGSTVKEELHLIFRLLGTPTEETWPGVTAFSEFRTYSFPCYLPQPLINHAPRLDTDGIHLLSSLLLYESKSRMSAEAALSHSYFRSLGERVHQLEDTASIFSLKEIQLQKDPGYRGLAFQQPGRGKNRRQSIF

CHEK2 = target: T10, CHEK2 (Homo sapiens, UniProt O96017); assay: KinomeScan; format: binding; conditions: read-out: % control
T10 construct: purchased DiscoveRx KINOMEscan

PIK3CA(M1043I) = target: T11, PIK3CA(M1043I) (Homo sapiens, UniProt P42336, M1043I); assay: KinomeScan; format: binding; conditions: read-out: % control
T11 construct: purchased DiscoveRx KINOMEscan

[2] = target: T12, RSK4(Kin.Dom.1-N-terminal) (Homo sapiens, UniProt Q9UK32); assay: KinomeScan; format: binding; conditions: read-out: % control
T12 construct: RSK4(Kin.Dom.1-N-terminal); purchased DiscoveRx KINOMEscan

PRKD3 = target: T13, PRKD3 (Homo sapiens, UniProt O94806); assay: KinomeScan; format: binding; conditions: read-out: % control
T13 construct: purchased DiscoveRx KINOMEscan

LIMK1 = target: T14, LIMK1 (Homo sapiens, UniProt P53667); assay: KinomeScan; format: binding; conditions: read-out: % control
T14 construct: purchased DiscoveRx KINOMEscan

DLK = target: T15, DLK (Homo sapiens, UniProt Q12852); assay: KinomeScan; format: binding; conditions: read-out: % control
T15 construct: purchased DiscoveRx KINOMEscan

FLT3(ITD) = assay: KinomeScan; format: binding; conditions: 1μM
FAK = target: T16, FAK (Homo sapiens, UniProt Q05397); assay: KinomeScan; format: binding; conditions: read-out: % control
T16 construct: purchased DiscoveRx KINOMEscan

[3] = target: T17, ABL1(F317I)-nonphosphorylated (Homo sapiens, UniProt P00519, F317I); assay: KinomeScan; format: binding; conditions: read-out: % control
T17 construct: purchased DiscoveRx KINOMEscan

LKB1 = target: T18, LKB1 (Homo sapiens, UniProt Q15831); assay: KinomeScan; format: binding; conditions: read-out: % control
T18 construct: purchased DiscoveRx KINOMEscan

NIM1 = target: T19, NIM1 (Homo sapiens, UniProt Q8IY84); assay: KinomeScan; format: binding; conditions: read-out: % control
T19 construct: purchased DiscoveRx KINOMEscan

[4] = target: T20, TYK2(JH2domain-pseudokinase) (Homo sapiens, UniProt P29597); assay: KinomeScan; format: binding; conditions: read-out: % control
T20 construct: TYK2(JH2domain-pseudokinase); purchased DiscoveRx KINOMEscan

PIK4CB = target: T21, PIK4CB (Homo sapiens, UniProt Q9UBF8); assay: KinomeScan; format: binding; conditions: read-out: % control
T21 construct: purchased DiscoveRx KINOMEscan
T21 sequence (Q9UBF8 whole entry): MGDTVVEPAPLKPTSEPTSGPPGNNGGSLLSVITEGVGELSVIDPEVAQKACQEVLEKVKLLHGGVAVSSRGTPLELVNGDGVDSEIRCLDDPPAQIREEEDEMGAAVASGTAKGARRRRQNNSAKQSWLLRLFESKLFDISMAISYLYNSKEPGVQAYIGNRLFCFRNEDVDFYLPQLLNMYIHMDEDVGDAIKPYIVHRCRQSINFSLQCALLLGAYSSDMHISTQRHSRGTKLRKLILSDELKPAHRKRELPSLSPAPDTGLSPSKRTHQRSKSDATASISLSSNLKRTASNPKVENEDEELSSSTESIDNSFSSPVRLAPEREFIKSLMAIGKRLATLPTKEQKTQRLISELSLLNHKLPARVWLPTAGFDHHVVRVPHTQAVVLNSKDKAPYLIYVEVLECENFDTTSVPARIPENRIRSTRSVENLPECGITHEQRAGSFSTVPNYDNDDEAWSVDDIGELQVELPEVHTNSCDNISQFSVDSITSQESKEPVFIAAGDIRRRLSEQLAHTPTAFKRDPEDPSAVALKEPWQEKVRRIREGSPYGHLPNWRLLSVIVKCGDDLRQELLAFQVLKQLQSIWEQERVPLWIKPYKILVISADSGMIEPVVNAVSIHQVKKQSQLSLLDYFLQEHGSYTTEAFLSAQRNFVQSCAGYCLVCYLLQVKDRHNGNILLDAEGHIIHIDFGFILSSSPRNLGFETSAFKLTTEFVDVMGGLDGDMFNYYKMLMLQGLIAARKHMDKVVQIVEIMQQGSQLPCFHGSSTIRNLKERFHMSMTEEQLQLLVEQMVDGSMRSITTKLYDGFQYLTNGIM

NEK2 = target: T22, NEK2 (Homo sapiens, UniProt P51955); assay: KinomeScan; format: binding; conditions: read-out: % control
T22 construct: purchased DiscoveRx KINOMEscan

WEE1 = target: T23, WEE1 (Homo sapiens, UniProt P30291); assay: KinomeScan; format: binding; conditions: read-out: % control
T23 construct: purchased DiscoveRx KINOMEscan

BaF3-INSR = assay: Anti-proliferative effects, INSR transformed isogenic BaF3 cells; format: cell-based; conditions: Mus musculus, read-out: IC50 (anti-proliferative; GI50)
PRP4 = target: T24, PRP4 (Homo sapiens, UniProt Q13523); assay: KinomeScan; format: binding; conditions: read-out: % control
T24 construct: purchased DiscoveRx KINOMEscan

MST3 = target: T25, MST3 (Homo sapiens, UniProt Q9Y6E0); assay: KinomeScan; format: binding; conditions: read-out: % control
T25 construct: purchased DiscoveRx KINOMEscan

PRKCE = target: T26, PRKCE (Homo sapiens, UniProt Q02156); assay: KinomeScan; format: binding; conditions: read-out: % control
T26 construct: purchased DiscoveRx KINOMEscan

BaF3-FL-EGFR-del19 = assay: Anti-proliferation, BaF3 isogenic cell lines (CellTiter-Glo); format: cell-based; conditions: Mus musculus, 72 hours, triplet testing
PLK2 = target: T27, PLK2 (Homo sapiens, UniProt Q9NYY3); assay: KinomeScan; format: binding; conditions: read-out: % control
T27 construct: purchased DiscoveRx KINOMEscan

FLT3(D835Y) = target: T28, FLT3(D835Y) (Homo sapiens, UniProt P36888, D835Y); assay: KinomeScan; format: binding; conditions: read-out: % control
T28 construct: purchased DiscoveRx KINOMEscan

ERBB2 = target: T29, ERBB2 (Homo sapiens, UniProt P04626); assay: KinomeScan; format: binding; conditions: read-out: % control
T29 construct: purchased DiscoveRx KINOMEscan

CDK5 = target: T30, CDK5 (Homo sapiens, UniProt Q00535); assay: KinomeScan; format: binding; conditions: read-out: % control
T30 construct: purchased DiscoveRx KINOMEscan
T30 sequence (Q00535 whole entry): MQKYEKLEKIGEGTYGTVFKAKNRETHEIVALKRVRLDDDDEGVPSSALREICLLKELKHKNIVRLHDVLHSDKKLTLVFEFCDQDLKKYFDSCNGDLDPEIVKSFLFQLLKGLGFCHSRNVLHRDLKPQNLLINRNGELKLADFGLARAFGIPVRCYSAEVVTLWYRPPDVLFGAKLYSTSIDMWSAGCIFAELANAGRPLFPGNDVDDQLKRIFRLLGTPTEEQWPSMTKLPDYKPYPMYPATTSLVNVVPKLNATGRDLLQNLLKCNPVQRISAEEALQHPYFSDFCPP

BaF3-IGF1R = assay: Anti-proliferative effects, IGF1R transformed isogenic BaF3 cells; format: cell-based; conditions: Mus musculus, read-out: IC50 (anti-proliferative; GI50)
EPHB6 = target: T31, EPHB6 (Homo sapiens, UniProt O15197); assay: KinomeScan; format: binding; conditions: read-out: % control
T31 construct: purchased DiscoveRx KINOMEscan

CDK3 = target: T32, CDK3 (Homo sapiens, UniProt Q00526); assay: KinomeScan; format: binding; conditions: read-out: % control
T32 construct: purchased DiscoveRx KINOMEscan

RET = target: T33, RET (Homo sapiens, UniProt P07949); assay: KinomeScan; format: binding; conditions: read-out: % control
T33 construct: purchased DiscoveRx KINOMEscan

KIT-autoinhibited = target: T34, KIT-autoinhibited (Homo sapiens, UniProt P10721); assay: KinomeScan; format: binding; conditions: read-out: % control
T34 construct: purchased DiscoveRx KINOMEscan
T34 sequence (P10721 26-976): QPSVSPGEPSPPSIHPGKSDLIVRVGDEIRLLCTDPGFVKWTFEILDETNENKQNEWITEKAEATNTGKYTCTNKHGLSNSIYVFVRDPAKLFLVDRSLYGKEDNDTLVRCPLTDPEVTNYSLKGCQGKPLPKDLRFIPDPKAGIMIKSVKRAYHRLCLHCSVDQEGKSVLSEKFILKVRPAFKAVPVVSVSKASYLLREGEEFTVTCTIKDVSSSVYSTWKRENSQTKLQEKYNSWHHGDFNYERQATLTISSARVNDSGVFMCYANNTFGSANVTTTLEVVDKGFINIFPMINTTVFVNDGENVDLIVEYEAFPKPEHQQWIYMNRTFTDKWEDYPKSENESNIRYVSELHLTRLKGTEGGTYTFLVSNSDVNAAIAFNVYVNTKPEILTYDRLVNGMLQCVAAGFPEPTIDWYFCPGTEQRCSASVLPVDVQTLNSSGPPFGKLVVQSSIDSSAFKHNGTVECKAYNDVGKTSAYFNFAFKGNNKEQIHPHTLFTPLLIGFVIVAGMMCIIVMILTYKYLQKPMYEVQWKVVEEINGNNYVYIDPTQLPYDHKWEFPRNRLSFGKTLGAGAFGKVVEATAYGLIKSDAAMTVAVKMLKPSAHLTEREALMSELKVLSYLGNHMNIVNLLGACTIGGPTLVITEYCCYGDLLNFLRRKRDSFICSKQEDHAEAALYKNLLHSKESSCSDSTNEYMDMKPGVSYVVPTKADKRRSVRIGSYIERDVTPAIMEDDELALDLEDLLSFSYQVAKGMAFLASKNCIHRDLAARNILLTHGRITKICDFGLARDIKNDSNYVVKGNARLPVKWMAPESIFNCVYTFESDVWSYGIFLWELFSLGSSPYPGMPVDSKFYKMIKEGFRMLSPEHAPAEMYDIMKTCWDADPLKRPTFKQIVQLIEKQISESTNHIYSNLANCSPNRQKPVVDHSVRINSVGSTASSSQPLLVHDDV

ITK = target: T35, ITK (Homo sapiens, UniProt Q08881); assay: KinomeScan; format: binding; conditions: read-out: % control
T35 construct: purchased DiscoveRx KINOMEscan

TRKA = target: T36, TRKA (Homo sapiens, UniProt P04629); assay: KinomeScan; format: binding; conditions: read-out: % control
T36 construct: purchased DiscoveRx KINOMEscan
T36 sequence (P04629 33-796): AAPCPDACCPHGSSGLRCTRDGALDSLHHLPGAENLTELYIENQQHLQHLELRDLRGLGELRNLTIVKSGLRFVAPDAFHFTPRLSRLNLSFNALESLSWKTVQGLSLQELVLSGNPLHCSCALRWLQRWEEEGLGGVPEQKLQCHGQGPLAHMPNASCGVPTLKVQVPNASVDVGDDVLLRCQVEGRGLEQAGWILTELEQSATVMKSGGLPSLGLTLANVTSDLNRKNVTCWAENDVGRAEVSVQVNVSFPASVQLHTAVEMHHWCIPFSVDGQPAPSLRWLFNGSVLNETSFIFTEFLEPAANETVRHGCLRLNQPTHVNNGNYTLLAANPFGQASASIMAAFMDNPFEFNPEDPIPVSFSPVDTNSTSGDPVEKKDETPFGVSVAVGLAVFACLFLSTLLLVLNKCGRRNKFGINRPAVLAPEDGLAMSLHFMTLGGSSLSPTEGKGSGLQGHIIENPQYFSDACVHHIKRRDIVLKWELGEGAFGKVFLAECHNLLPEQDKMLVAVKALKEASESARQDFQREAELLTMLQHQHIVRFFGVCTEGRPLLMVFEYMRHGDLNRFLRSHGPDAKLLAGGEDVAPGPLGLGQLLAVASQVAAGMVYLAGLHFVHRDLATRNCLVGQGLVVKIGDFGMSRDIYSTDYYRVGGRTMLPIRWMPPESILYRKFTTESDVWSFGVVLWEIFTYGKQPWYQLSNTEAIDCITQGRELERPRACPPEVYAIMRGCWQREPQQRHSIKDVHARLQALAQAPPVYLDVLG

MKNK2 = target: T37, MKNK2 (Homo sapiens, UniProt Q9HBH9); assay: KinomeScan; format: binding; conditions: read-out: % control
T37 construct: purchased DiscoveRx KINOMEscan

[5] = target: T38, RSK3(Kin.Dom.2-C-terminal) (Homo sapiens, UniProt Q15349); assay: KinomeScan; format: binding; conditions: read-out: % control
T38 construct: RSK3(Kin.Dom.2-C-terminal); purchased DiscoveRx KINOMEscan

C=CC(=O)N1CCC[C@@H](n2nc(-c3ccc(OCc4cccc(C)n4)c(Cl)c3)c3c(N)ncnc32)C1 [CHMFL-EGFR-26]
remaining binding at 1 µM (RET(V804M)): 93%
remaining binding at 1 µM [1]: 97%
remaining binding at 1 µM (WNK2): 92%
remaining binding at 1 µM (LYN): 94%
remaining binding at 1 µM (CDC2L1): 86%
remaining binding at 1 µM (TAOK3): 100%
remaining binding at 1 µM (BTK): 0.45%
remaining binding at 1 µM (NEK10): 99%
remaining binding at 1 µM (PCTK3): 94%
remaining binding at 1 µM (CHEK2): 88%
remaining binding at 1 µM (PIK3CA(M1043I)): 100%
remaining binding at 1 µM [2]: 100%
remaining binding at 1 µM (PRKD3): 92%
remaining binding at 1 µM (LIMK1): 99%
remaining binding at 1 µM (DLK): 78%
% control (FLT3(ITD)): 87%
remaining binding at 1 µM (FAK): 90%
remaining binding at 1 µM [3]: 100%
remaining binding at 1 µM (LKB1): 79%
remaining binding at 1 µM (NIM1): 96%
remaining binding at 1 µM [4]: 97%
remaining binding at 1 µM (PIK4CB): 100%
remaining binding at 1 µM (NEK2): 18%
remaining binding at 1 µM (WEE1): 85%
IC50 (BaF3-INSR): 2800 nM
remaining binding at 1 µM (PRP4): 78%
remaining binding at 1 µM (MST3): 39%
remaining binding at 1 µM (PRKCE): 99%
GI50 (BaF3-FL-EGFR-del19): 13 nM
remaining binding at 1 µM (PLK2): 89%
remaining binding at 1 µM (FLT3(D835Y)): 97%
remaining binding at 1 µM (ERBB2): 0%
remaining binding at 1 µM (CDK5): 100%
IC50 (BaF3-IGF1R): 3.6 µM
remaining binding at 1 µM (EPHB6): 82%
remaining binding at 1 µM (CDK3): 84%
remaining binding at 1 µM (RET): 95%
remaining binding at 1 µM (KIT-autoinhibited): 95%
remaining binding at 1 µM (ITK): 96%
remaining binding at 1 µM (TRKA): 55%
remaining binding at 1 µM (MKNK2): 91%
remaining binding at 1 µM [5]: 85%

— PMC5392334, “Discovery and characterization of a novel irreversible EGFR mutants selective and potent kinase inhibitor CHMFL-EGFR-26 with a distinct binding mode” (Oncotarget, 2017)
